Measured values taken from US9993463B2, “Use of maleimide derivatives for preventing and treating cancer” (CENTOGENE AG, priority 2012, dated 2018).

Assays:
[1] = test system: human neuronal progenitor cells (hNPCs, ReNcell VM); experiment: Cell proliferation and vitality assay (CASY, current exclusion), hNPCs; format: cell-based; conditions: for proliferation relative to control: 72 h
Experimental: (§1) Human neural progenitor cells ReNcell VM (Millipore, Schwalbach, Germany) were cultured on laminin-coated culture-vessels. Culture medium consisted of DMEM/F12 supplemented with B27 media supplement, GlutaMax™, gentamycin and heparin sodium salt and growth factors EGF (epidermal growth factor) and bFGF (basic fibroblast growth factor). The human neuroblastoma cell line SH-SY5Y was obtained from the German Resource Centre for Biological Material DSMZ (Braunschweig, Germany). Cells were cultivated in DMEM, supplemented with 10% FBS, 1% Penicillin-Streptomycin, 4 mM L-Glutamine. The human T cell leukemia cell line Jurkat was obtained from the German Resource Centre for Biological Material DSMZ (Braunschweig, Germany). Cells were cultivated in RPMI 1640 medium, supplemented with 10% FBS, 1% Penicillin-Streptomycin. The murine melanoma cell line B16F10 was obtained from the American Type Culture Collection (ATCC, Manassas, USA), Cells were cultivated in DMEM/GM medium supplemented with 10% FBS, 1% Penicillin-Streptomycin. The mammary gland/breast carcinoma cell line MCF-7 was obtained from American Type Culture Collection (ATCC, Manassas, USA) and cultivated according to standard proceedings in Eagle's Minimum Essential Medium (EMEM). The colon carcinoma cell line SW480 was obtained from American Type Culture Collection (ATCC, Manassas, USA) and cultivated according to standard proceedings in Leibovitz's L15 Medium. The lung carcinoma cell line A549 was obtained from American Type Culture Collection (ATCC, Manassas, USA) and cultivated according to standard proceedings in F-12K Medium (Kaighn's Modification of Ham's F-12 Medium). The liver carcinoma cell line Hep G2 was obtained from American Type Culture Collection (ATCC, Manassas, USA) and cultivated according to standard proceedings in Eagle's Minimum Essential Medium (EMEM).
(§2) Cell proliferation and vitality were measured with a CASY Model TT (Roche, Mannheim, Germany) by electrical current exclusion method. Cells were seeded in defined numbers into 48-well-plates and proliferated for 24 h. Subsequently fresh medium was applied containing compounds or DMSO, in the following referred as control.
5.1 Cytotoxic effects were evaluated using human fetal cells immortalized by transfection with the oncogen v-myc (Donato et al., Differential development of neuronal physiological responsiveness in two human neural stem cell lines. BMC Neurosci.; 8, 2007), also referred to herein as human neuronal progenitor cells, hNPCs, or ReNcell VM, providing a sensitive screening system and cancer cells, namely SH5Y5, Jurkat and B16F10 cells. Cytotoxic effects were measured by comparison of cells numbers of DMSO treated cells (control) and cell numbers of cells treated with compound of above mentioned example 2.6 (PDA66). Cell proliferation and vitality was measured with a CASY Model TT (Roche, Mannheim, Germany) by electrical current exclusion method. Cells were seeded in defined numbers into 48-well-plates and proliferated for 24 h: Subsequently fresh medium was applied containing compound of example 6 (3 μM) (PDA-66) or DMSO, in the following referred as control. Cell number and cell vitality was measured after 72 h.

[2] = test system: human T cell leukemia (Jurkat) cells; experiment: Cell proliferation assay (CASY, current exclusion), Jurkat; format: cell-based; conditions: 72 h
Experimental: as §1, with “The lung carcinoma cell line A549 was obtained from American Type Culture Collection (ATCC, Manassas, USA) and cultivated according to standard proceedings in F-12K Medium (Kaighn's Modification of Ham's F-12 Medium). The liver carcinoma cell line Hep G2 was obtained from American Type Culture Collection (ATCC, Manassas, USA) and cultivated according to standard proceedings in Eagle's Minimum Essential Medium (EMEM).” left out
(§3) Cell proliferation and vitality were measured with a CASY Model TT (Roche, Mannheim, Germany) by electrical current exclusion method. […]
(§4) 5.2 Furthermore cancer cells were treated with compound of example 2.6 (PDA-66) with a concentration of 3 μM for 72 h and cell number was evaluated using the current exclusion method as described above.
(§5) In a further experiment further cancer cells were treated with compound of example 2.6 (PDA-66) with a concentration of 3 μM or 10 μM for 72 h and cell number was evaluated using the current exclusion method as described above.

[3] = test system: murine melanoma cells (B16F10); experiment: Cell proliferation assay (CASY, current exclusion), B16F10; format: cell-based
Experimental: as §1, §2, §4, §5

[4] = test system: MCF-7 cells (mammary gland/breast carcinoma); experiment: Cell proliferation assay (CASY, current exclusion), MCF-7; format: cell-based; conditions: mamma carcinoma cells (printed MCF-1), 72 h
Experimental: (§6) Human neural progenitor cells ReNcell VM (Millipore, Schwalbach, Germany) were cultured on laminin-coated culture-vessels. Culture medium consisted of DMEM/F12 supplemented with B27 media supplement, GlutaMax™, gentamycin and heparin sodium salt and growth factors EGF (epidermal growth factor) and bFGF (basic fibroblast growth factor). The human neuroblastoma cell line SH-SY5Y was obtained from the German Resource Centre for Biological Material DSMZ (Braunschweig, Germany). Cells were cultivated in DMEM, supplemented with 10% FBS, 1% Penicillin-Streptomycin, 4 mM L-Glutamine. The human T cell leukemia cell line Jurkat was obtained from the German Resource Centre for Biological Material DSMZ (Braunschweig, Germany). Cells were cultivated in RPMI 1640 medium, supplemented with 10% FBS, 1% Penicillin-Streptomycin. The murine melanoma cell line B16F10 was obtained from the American Type Culture Collection (ATCC, Manassas, USA), Cells were cultivated in DMEM/GM medium supplemented with 10% FBS, 1% Penicillin-Streptomycin. […]
as §3, §5

[5] = test system: colon carcinoma cells (SW480); experiment: Cell proliferation assay (CASY, current exclusion), SW480; format: cell-based; conditions: 72 h
Experimental: as §6, §3, §5

[6] = test system: lung carcinoma cells (A 549); experiment: Cell proliferation assay (CASY, current exclusion), A549; format: cell-based; conditions: for proliferation relative to control: 72 h
Experimental: as §1, with “The liver carcinoma cell line Hep G2 was obtained from American Type Culture Collection (ATCC, Manassas, USA) and cultivated according to standard proceedings in Eagle's Minimum Essential Medium (EMEM).” left out
as §3, §5

[7] = test system: liver carcinoma cells (HepG2); experiment: Cell proliferation assay (CASY, current exclusion), HepG2; format: cell-based; conditions: 72 h
Experimental: as §6, §3, §5

[8] = test system: human neuroblastoma cells (SH5Y5); experiment: Cell proliferation assay (CASY, current exclusion), SH5Y5; format: cell-based; conditions: SH5Y5, 3 μM, 72 h, FIG. 2
Experimental: as §6, §3, §4

[9] = test system: apoptotic cells (AnnexinV/PI); experiment: AnnexinV/PI apoptosis detection (FACS); format: cell-based; conditions: FIG. 3
Experimental: To determine the amount of apoptotic and necrotic cells a FITC AnnexinV Apoptosis Detection Kit I was used. For FACS analysis, cells were trypsinised and centrifuged at 100×g at RT for 5 min and washed with PBS without Ca2^+ and Mg^2+. Annexin V and propidium iodide (PI) were added accordingly to the manufacture's instructions. After 15 min incubation at room temperature on a shaker in the dark, the measurement was done by using FACSCalibur (Becton Dickinson, San Jose, USA) in combination with Cell Quest Pro software.

human immortalized cells = experiment: Mitotic arrest in G2/M phase of cell cycle; format: cell-based; conditions: after 16 h (highest amount), control 17.4±2.3%
Source text: As a measure the increase in cells with double DNA content was used, where at all points in time the amount of treated cells was higher in comparison to untreated cells.

bovine neuronal tubulin = experiment: VEC-DIC microscopy of tubulin polymerization; format: biochemical; conditions: tubulin 2 mg/ml, 37° C., 1 h, FIG. 5A, B
Experimental: In order to evaluate interference with tubulin polymerisation bovine neuronal tubulin was used, diluted in BRB80 buffer (80 mM PIPES, pH 6.8; MgCl2 1 mM; EGTA 1 mM) at a concentration of 2 mg/ml. After addition of 0.5 mM GTP and 10% DMSO, initiating tubulin polymerisation, the solution samples were incubated at 37° C. in the presence of compound of example 6 (PDA-66). After 1 h the samples were analysed by using video enhanced contrast differential interference contrast (VEC-DIC) microscopy.

[10] = test system: purified bovine brain tubulin; experiment: Tubulin polymerisation turbidity assay; format: biochemical; conditions: 1 μM, 340 nm, 37° C.; for shape of OD curve over time / effect on tubulin polymerization: 60 min, FIG. 5C, untreated control sigmoid
Experimental: Purified bovine brain tubulin was used to measure tubulin-polymerisation by determining turbidity in tubulin samples incubated with compound of example 6 (PDA-66), paclitaxel or nocodazole (all 1 μM) and 0.6% DMSO in water as negative control. Optical density (OD) was measured after initiation of tubulin assembly at a wavelength of 340 nm continuously for 60 min in 1 min intervals at a temperature of 37° C. in a plate reader (Tecan, Mainz, Germany).

CC(=O)c1ccc(C2=C(c3c(C)[nH]c4ccccc34)C(=O)N(C)C2=O)cc1 [PDA-66, 3-(4-Acetylphenyl)-1-methyl-4-(2-methyl-1H-indol-3-yl)-1H-pyrrole-2,5-dione]
proliferation relative to control ([1]; 3 μM): 3.6±1.2%
number of vital cells (vitality) versus control ([1]; 3 μM, FIG. 1 right panel): significantly lower
proliferation of immortalized cells (cell number) versus control ([1]; 3 μM, up to 72 h, FIG. 1 left panel): no proliferation
proliferation relative to control ([1]; 10 μM): 0.9±0.2%
effect of concentration on proliferation of immortalized cells ([1]; FIG. 6): dose-dependent effect
IC50 ([1]; Homo sapiens, ReNcell VM): 0.532 µM
proliferation relative to control ([2]; 3 μM): 18.2±2.2%
cell numbers versus control ([2]; 3 μM, FIG. 2): reduced or attenuated significantly
proliferation relative to control ([2]; 10 μM): 31.9±5.9%
proliferation relative to control ([3]; B16F10, 3 μM, 72 h): 7.2±1.3%
cell numbers versus control ([3]; B16F10, 3 μM, 72 h, FIG. 2): reduced or attenuated significantly
proliferation relative to control ([3]; B16F10, at 10 (unit not given), 72 h): 8.3±2.6%
IC50 ([3]; Mus musculus, B16-F10, B16F10 cells): 1.07 µM
proliferation relative to control ([4]; 3 μM): 43.0±2.8%
proliferation relative to control ([4]; 10 μM): 38.3±11.8%
proliferation relative to control ([5]; SW480, 3 μM): 61.3±0.6%
proliferation relative to control ([5]; SW480, 10 μM): 56.6±6.6%
proliferation relative to control ([6]; A 549, 3 μM): 57.1±9.2%
proliferation relative to control ([6]; A 549, 10 μM): 65.7±8.0%
IC50 ([6]; Homo sapiens, A549 cells): 8.98 µM
proliferation relative to control ([7]; HepG2, 3 μM): 74.8±6.3%
proliferation relative to control ([7]; HepG2, 10 μM): 47.2±3.8%
cell numbers versus control [8]: reduced or attenuated significantly
apoptotic cells (AnnexinV+/PI− and AnnexinV+/PI+) [9]: increase of apoptotic cells
amount of cells in G2/M phase of cell cycle (human immortalized cells): 68.9±10.3%
microtubule (MT) polymerization by VEC-DIC microscopy (bovine neuronal tubulin): hindered the MT-polymerization
maximal OD after 60 min [10]: 1.04 rel. units
shape of OD curve over time / effect on tubulin polymerization [10]: destabilized tubulin in a way comparable to nocodazole

CC(=O)O[C@H]1C(=O)[C@@]2(C)[C@H]([C@H](OC(=O)c3ccccc3)[C@]3(O)C[C@H](OC(=O)[C@H](O)[C@@H](NC(=O)c4ccccc4)c4ccccc4)C(C)=C1C3(C)C)[C@]1(OC(C)=O)CO[C@@H]1C[C@@H]2O [paclitaxel]
maximal OD after 60 min [10]: 1.18 rel. units
shape of OD curve over time / effect on tubulin polymerization [10]: comparable shape but with a steeper slope

COC(=O)Nc1nc2ccc(C(=O)c3cccs3)cc2[nH]1 [nocodazole]
maximal OD after 60 min [10]: 1.01 rel. units
shape of OD curve over time / effect on tubulin polymerization [10]: nearly linear curve
